Test results: ChEMBL document CHEMBL5331046, “Disulfiram and dithiocarbamate analogues demonstrate promising antischistosomal effects” (Eur J Med Chem, 2022)
Calls of active or inactive are those of the source. The calls are words filed in the database; no cut-off is given here.

What was measured:
Schistosoma mansoni [1] = assay: Antischistosomal activity against Schistosoma mansoni couples assessed as inhibition of eggs production at 100 uM measured upto 72 hrs by bright field microscopy; format: functional; design: scale not given: the % may be the effect or the level left
Schistosoma mansoni [2] = assay: Antischistosomal activity against Schistosoma mansoni couples at 100 uM measured upto 72 hrs by bright field microscopy; format: functional, organism-based
Schistosoma mansoni [3] = assay: Antischistosomal activity against Schistosoma mansoni couples assessed as induction of phenotypes at 10 uM measured upto 72 hrs by bright field microscopy; format: functional, organism-based
Schistosoma mansoni [4] = assay: Antischistosomal activity against Schistosoma mansoni couples assessed as decrease in parasite motility at 15 uM measured upto 72 hrs by bright field microscopy; format: functional; design: scale not given: the % may be the effect or the level left
Schistosoma mansoni [5] = assay: Antischistosomal activity against Schistosoma mansoni couples assessed as inhibition of eggs production at 15 uM measured upto 72 hrs by bright field microscopy; format: functional; design: scale not given: the % may be the effect or the level left
Schistosoma mansoni [6] = assay: Antischistosomal activity against Schistosoma mansoni couples assessed as decrease in parasite vitality at 15 uM measured upto 72 hrs by bright field microscopy; format: functional; design: scale not given: the % may be the effect or the level left
Schistosoma mansoni [7] = assay: Antischistosomal activity against Schistosoma mansoni couples assessed as decrease in pairing stability at 15 uM measured upto 72 hrs by bright field microscopy; format: functional; design: scale not given: the % may be the effect or the level left
Schistosoma mansoni [8] = assay: Antischistosomal activity against Schistosoma mansoni couples assessed as decrease in parasite motility at 10 uM measured upto 72 hrs by bright field microscopy; format: functional, organism-based
Schistosoma mansoni [9] = assay: Antischistosomal activity against Schistosoma mansoni couples assessed as decrease in parasite motility at 25 uM measured upto 72 hrs by bright field microscopy; format: functional; design: scale not given: the % may be the effect or the level left
Schistosoma mansoni [10] = assay: Antischistosomal activity against Schistosoma mansoni couples assessed as decrease in parasite vitality at 10 uM measured upto 72 hrs by bright field microscopy; format: functional
Schistosoma mansoni [11] = assay: Antischistosomal activity against Schistosoma mansoni couples assessed as induction of weak phenotypes at 25 uM measured upto 72 hrs by bright field microscopy; format: functional, organism-based
HepG2 [12] = assay: Cytotoxicity against human HepG2 cells assessed as reduction in cell vaibility at 25 uM by WST-1 assay; format: toxicity, cell-based; details: hepg2, 25 µM
LS174T [13] = assay: Cytotoxicity against human LS174T cells assessed as reduction in cell vaibility at 25 uM by WST-1 assay; format: toxicity, cell-based
Schistosoma mansoni [14] = assay: Antischistosomal activity against Schistosoma mansoni couples assessed as inhibition of eggs production at 10 uM measured upto 72 hrs by bright field microscopy; format: functional, organism-based
Schistosoma mansoni [15] = assay: Antischistosomal activity against Schistosoma mansoni couples assessed as reduction in pairing stability at 10 uM measured upto 72 hrs by bright field microscopy; format: functional, organism-based
Schistosoma mansoni [16] = assay: Antischistosomal activity against Schistosoma mansoni couples assessed as decrease in parasite motility at 100 uM measured upto 72 hrs by bright field microscopy; format: functional
Schistosoma mansoni [17] = assay: Antischistosomal activity against Schistosoma mansoni couples assessed as pairing instability at 50 uM measured upto 72 hrs by bright field microscopy; format: functional
Schistosoma mansoni [18] = assay: Antischistosomal activity against Schistosoma mansoni couples assessed as inhibition of eggs production at 50 uM measured upto 72 hrs by bright field microscopy; format: functional, organism-based
Schistosoma mansoni [19] = assay: Antischistosomal activity against Schistosoma mansoni couples assessed as decrease in parasite motility at 50 uM measured upto 72 hrs by bright field microscopy; format: functional; design: scale not given: the % may be the effect or the level left
Schistosoma mansoni [20] = assay: Antischistosomal activity against Schistosoma mansoni couples assessed as reduction in pairing stability at 50 uM measured upto 72 hrs by bright field microscopy; format: functional, organism-based
LS174T [21] = assay: Cytotoxicity against human LS174T cells assessed as reduction in cell viability at 100 uM by WST-1 assay; format: toxicity, cell-based
HepG2 [22] = assay: Cytotoxicity against human HepG2 cells assessed as reduction in cell vaibility at 100 uM by WST-1 assay; format: toxicity, cell-based; details: hepg2, 100 µM
Schistosoma mansoni [23] = assay: Antischistosomal activity against Schistosoma mansoni couples assessed as reduction in pairing stability at 100 uM measured upto 72 hrs by bright field microscopy; format: functional
Schistosoma mansoni [24] = assay: Antischistosomal activity against Schistosoma mansoni couples at 25 uM measured upto 72 hrs by bright field microscopy; format: functional, organism-based
Schistosoma mansoni [25] = assay: Antischistosomal activity against Schistosoma mansoni couples at >=50 uM measured upto 72 hrs by bright field microscopy; format: functional, organism-based
HepG2 [26] = assay: Cytotoxicity against human HepG2 cells assessed as reduction in cell viability upto 100 uM by WST-1 assay; format: toxicity, cell-based; details: hepg2, 100 µM
Schistosoma mansoni [27] = assay: Antischistosomal activity against Schistosoma mansoni couples assessed as tegument damage upto 100 uM measured upto 72 hrs by bright field microscopy; format: functional, organism-based
LS174T [28] = assay: Cytotoxicity against human LS174T cells assessed as reduction in cell vaibility upto 100 uM by WST-1 assay; format: toxicity, cell-based
Schistosoma mansoni [29] = assay: Antischistosomal activity against Schistosoma mansoni couples assessed as eggs deformation at 100 uM measured upto 72 hrs by bright field microscopy; format: functional
Schistosoma mansoni [30] = assay: Antischistosomal activity against Schistosoma mansoni couples assessed as tegument damage at 100 uM measured upto 72 hrs by bright field microscopy; format: functional, organism-based
Schistosoma mansoni [31] = assay: Antischistosomal activity against Schistosoma mansoni couples assessed as tegument damage at 50 uM measured upto 72 hrs by bright field microscopy; format: functional, organism-based
Schistosoma mansoni [32] = assay: Antischistosomal activity against Schistosoma mansoni couples assessed as intestinal dilations and tegument damage at 50 uM measured upto 72 hrs by bright field microscopy; format: functional, organism-based
Schistosoma mansoni [33] = assay: Antischistosomal activity against Schistosoma mansoni couples assessed as gut dilations at 50 uM measured upto 72 hrs by bright field microscopy; format: functional, organism-based
Schistosoma mansoni [34] = assay: Antischistosomal activity against Schistosoma mansoni couples assessed as gut dilations at 100 uM measured upto 72 hrs by bright field microscopy; format: functional, organism-based

CCN(CC)C(=O)SCc1ccccc1
Activity (Schistosoma mansoni [1]): ~90%

CCN(CC)C(=S)SCc1ccc(-c2ccccc2)cc1
Activity (Schistosoma mansoni [1]): Active

S=C(SCc1ccccc1)N1CCCc2ccccc21
Activity (Schistosoma mansoni [2]): inactive

CCCCS(=O)(=O)N1CCN(C(=S)SCc2ccc([N+](=O)[O-])cc2)CC1
Activity (Schistosoma mansoni [3]): Active | Activity (Schistosoma mansoni [4]): 50% | Activity (Schistosoma mansoni [5]): 40% | Activity (Schistosoma mansoni [6]): 90% | Activity (Schistosoma mansoni [7]): 20% | Activity (Schistosoma mansoni [8]): Active

CCN(CC)C(=S)CCc1ccccc1
Activity (Schistosoma mansoni [2]): inactive

CSCC[C@H](N)C(=O)N1CCN(C(=S)SCc2ccc([N+](=O)[O-])cc2)CC1.Cl
Activity (Schistosoma mansoni [9]): 60% | Activity (Schistosoma mansoni [10]): Active | Activity (Schistosoma mansoni [11]): Active | Activity (HepG2 [12]): Toxic | Activity (LS174T [13]): Toxic | Activity (Schistosoma mansoni [14]): Active | Activity (Schistosoma mansoni [15]): Active | Activity (Schistosoma mansoni [8]): inactive

CCCCCCN(CCCCCC)C(=S)SCc1ccccc1
Activity (Schistosoma mansoni [2]): inactive

CCN(CC)C(=S)SCc1ccc(C(=O)O)cc1
Activity (Schistosoma mansoni [2]): inactive

CCN(CC)C(=S)SCCC1OCCO1
Activity (Schistosoma mansoni [16]): inactive | Activity (Schistosoma mansoni [17]): inactive

S=C(SCc1ccccc1)N1CCN(/C=C/c2ccccc2)CC1
Activity (Schistosoma mansoni [2]): inactive

CCN(CC)C(=S)SCc1ccc2ccccc2c1
Activity (Schistosoma mansoni [18]): Active | Activity (Schistosoma mansoni [19]): >50% | Activity (Schistosoma mansoni [20]): Active | Activity (LS174T [21]): Non-Toxic | Activity (HepG2 [22]): Non-Toxic

CCCCCN(CCCCC)C(=S)SCc1ccccc1
Activity (Schistosoma mansoni [2]): inactive

S=C(SCc1ccccc1)N1CCCCC1
Activity (Schistosoma mansoni [23]): Active | Activity (Schistosoma mansoni [1]): Active

CCN(CC)C(=S)SC [METHYLDIETHYL CARBAMODITHIOATE]
Activity (LS174T [21]): Non-Toxic | Activity (HepG2 [22]): Non-Toxic | Activity (Schistosoma mansoni [2]): inactive

CCN(CC)C(=S)SCC(=O)O
Activity (Schistosoma mansoni [23]): Active

CC(=O)N1CCN(C(=S)SCc2ccc([N+](=O)[O-])cc2)CC1
Activity (Schistosoma mansoni [24]): inactive

Cl.N[C@@H](CO)C(=O)N1CCN(C(=S)SCc2ccc([N+](=O)[O-])cc2)CC1
Activity (Schistosoma mansoni [9]): 30% | Activity (Schistosoma mansoni [11]): Active

CCN(CC)C(=S)OCc1ccccc1
Activity (Schistosoma mansoni [23]): 50% | Activity (Schistosoma mansoni [1]): 100%

CCN(CC)C(=S)SCCCc1ccccc1
Activity (Schistosoma mansoni [23]): 100% | Activity (Schistosoma mansoni [1]): 100% | Activity (Schistosoma mansoni [16]): inactive

CCN(CC)C(=S)SCCC1OCCCO1
Activity (Schistosoma mansoni [19]): inactive

CCCN1CCN(C(=S)SCc2ccccc2)CC1
Activity (Schistosoma mansoni [25]): Active

CN1CCN(C(=S)SCc2ccccc2)CC1
Activity (Schistosoma mansoni [25]): Active

CCN(CC)C(=S)SC(c1ccccc1)c1ccccc1
Activity (Schistosoma mansoni [23]): Active

CCC(CC)C(=O)SCc1ccccc1
Activity (Schistosoma mansoni [2]): Active

CCN(CC)C(=S)SCC(N)=O
Activity (Schistosoma mansoni [23]): Active

CCN(CC)C(=S)SCc1cccc2ccccc12
Activity (Schistosoma mansoni [19]): ~30%

CCN(CC)C(=S)SCCC1SCCS1
Activity (HepG2 [26]): Non-Toxic | Activity (Schistosoma mansoni [16]): >60% | Activity (Schistosoma mansoni [27]): Active | Activity (LS174T [28]): Non-Toxic | Activity (Schistosoma mansoni [17]): >90%

CN(C)C(=S)SCc1ccccc1
Activity (Schistosoma mansoni [23]): Active | Activity (Schistosoma mansoni [29]): Active

CCN(CC)C(=O)OCc1ccccc1
Activity (Schistosoma mansoni [29]): ~100%

CCN(CC)C(=S)SCCCCc1ccccc1
Activity (Schistosoma mansoni [23]): inactive | Activity (Schistosoma mansoni [1]): Active

CCN(CC)C(=S)SCCCCCc1ccccc1
Activity (Schistosoma mansoni [23]): inactive | Activity (Schistosoma mansoni [1]): Active

S=C(SCc1ccccc1)n1cnnc1
Activity (Schistosoma mansoni [2]): inactive

CCN(CC)C(=S)SCC(=O)OC
Activity (Schistosoma mansoni [23]): Active

O=[N+]([O-])c1ccc(CSC(=S)N2CCN(S(=O)(=O)C3CC3)CC2)cc1
Activity (Schistosoma mansoni [3]): Active | Activity (Schistosoma mansoni [4]): 50% | Activity (Schistosoma mansoni [5]): 40% | Activity (Schistosoma mansoni [6]): 90% | Activity (Schistosoma mansoni [7]): 20% | Activity (Schistosoma mansoni [8]): Active

CCN(CC)C(=S)SCCc1ccccc1
Activity (Schistosoma mansoni [23]): 100% | Activity (Schistosoma mansoni [1]): 100% | Activity (Schistosoma mansoni [16]): inactive

CCN(CC)C(=S)S/C=C/c1ccccc1
Activity (Schistosoma mansoni [30]): Active

CCN(CC)C(=S)SCc1ccc(C#N)cc1
Activity (Schistosoma mansoni [9]): Active | Activity (Schistosoma mansoni [31]): Active | Activity (Schistosoma mansoni [18]): Active | Activity (Schistosoma mansoni [32]): Active | Activity (Schistosoma mansoni [33]): Active | Activity (Schistosoma mansoni [20]): Active

S=C(SCc1ccccc1)N1CCc2ccccc2C1
Activity (Schistosoma mansoni [2]): inactive

CCN(CC)C(=S)SCc1ccncc1
Activity (Schistosoma mansoni [2]): inactive

CCN(CC)C(=S)SCCc1c[nH]c2ccccc12
Activity (Schistosoma mansoni [34]): Active | Activity (Schistosoma mansoni [16]): inactive

CCN1CCN(C(=S)SCc2ccccc2)CC1
Activity (Schistosoma mansoni [25]): Active

CCC(CC)C(=S)SCc1ccccc1
Activity (Schistosoma mansoni [2]): Active

S=C(SCc1ccccc1)n1ccnc1
Activity (Schistosoma mansoni [23]): Active | Activity (Schistosoma mansoni [1]): Active

CCN(CC)C(=S)SCc1ccc(C)cc1
Activity (HepG2 [26]): Non-Toxic | Activity (LS174T [28]): Non-Toxic

CCN(CC)C(=S)Sc1ccccc1
Activity (Schistosoma mansoni [23]): inactive | Activity (Schistosoma mansoni [1]): Active

CCN(CC)/C(=N/C#N)NCc1ccccc1
Activity (Schistosoma mansoni [2]): inactive

CCS(=O)(=O)N1CCN(C(=S)SCc2ccc([N+](=O)[O-])cc2)CC1
Activity (Schistosoma mansoni [3]): inactive | Activity (Schistosoma mansoni [4]): 50% | Activity (Schistosoma mansoni [5]): 40% | Activity (Schistosoma mansoni [6]): 90% | Activity (Schistosoma mansoni [7]): 20% | Activity (Schistosoma mansoni [8]): inactive

CCN(CC)C(=S)NCc1ccccc1
Activity (Schistosoma mansoni [2]): inactive

CCN(CC)C(=S)SCCN1CCOCC1
Activity (Schistosoma mansoni [23]): inactive | Activity (Schistosoma mansoni [29]): Active

O=[N+]([O-])c1ccc(CSC(=S)N2CCN(S(=O)(=O)c3cccc4ccccc34)CC2)cc1
Activity (Schistosoma mansoni [4]): inactive

S=C(SCc1ccccc1)N1CCN(c2ncccn2)CC1
Activity (Schistosoma mansoni [2]): Active

Cl.N[C@@H](Cc1ccc(O)cc1)C(=O)N1CCN(C(=S)SCc2ccc([N+](=O)[O-])cc2)CC1
Activity (Schistosoma mansoni [9]): 30% | Activity (Schistosoma mansoni [11]): Active

Cc1ccc(CN2CCN(C(=S)SCc3ccccc3)CC2)cc1
Activity (Schistosoma mansoni [2]): Active

O=C(c1ccco1)N1CCN(C(=S)SCc2ccc([N+](=O)[O-])cc2)CC1
Activity (Schistosoma mansoni [24]): inactive

O=C(C1CC1)N1CCN(C(=S)SCc2ccc([N+](=O)[O-])cc2)CC1
Activity (Schistosoma mansoni [24]): inactive
